System: C. albicans SC5314
Test: Germ tube formation (GTF %) in vitro screening, GlcNAc-triggered differentiation assay
Type: cell-based, Candida albicans
Procedure: Based on the results in FIG. 3, single cell suspensions of SC5314 was prepared as follows. Stock culture of C. albicans SC5314 was streaked onto YPD agar (YPDA) and incubated at 30° C. overnight. Single colonies were subcultured in YPD broth (YPDB) and incubated 30° C., 200 rpm overnight. Overnight culture in YPDB was subcultured in YPD broth again and incubated 30° C., 200 rpm 48 h. Cells were collected by centrifugation (4000 g 10 min) at 4° C., washed three times with sterile water, and then resuspended in sterile water a final concentration of 10^9 colony-forming unit/ml (cfu/ml). The suspension were stored at 4° C. at least 1 d, then subcultured into YPDB to a final concentration of 10^6 cfu/ml. After 48 h incubation, cell suspension was examined under the microscope for single cell percentage. When the single cell percentage exceeded 80%, cells were collected and washed three times with water, then resuspended in water to a final concentration of 10^9 cfu/ml, and stored at 4° C. for no more than a month.
Two approaches were taken to determine the percentage of cells with germ tubes formed (GTF %). One way was to count the total cells at the start of incubation, and count the ungerminated cells after incubation, then calculate the GTF % as (1—ungerminated cells/total cells at 0 h)*100. Another way was to store the samples at 15° C. for 20 h after incubation, then count the germinated cells and total cells after disaggregation, then calculated the GTF % as (germinated cells/total cells after storage)*100. […] Therefore, for practical purposes, the GTF % was determined by the first method, that is, GTF %=(1—ungerminated cells/total cells at 0 h)*100, for the in vitro screening discussed herein.
A screening medium, containing 11 mM imidazole buffer, 3 mM MgSO4, and 2.6 mM N-acetyl-D-glucosamine (GlcNAc) has been used to study the effect of farnesol analogs on the germ tube formation of C. albicans. Here, the germ tube formation of C. albicans in modified screening media was assessed with various concentrations of imidazole buffer (10 mM, 30 mM and 50 mM) and MgSO4 (0.5 mM, 1.5 mM and 3 mM). […] It took 2 h to 3 h for the GTF % to reach above 80%. For practical purposes, the screening medium, containing 11 mM imidazole buffer, 0.5 mM MgSO4, and 2.6 mM N-acetyl-D-glucosamine (GlcNAc) was adopted for in vitro screening the quorum sensing inhibitory effect of farnesol compounds.
The in vitro screening assay was based on the N-acetylglucosamine (GlcNAc)-triggered differentiation assay (Hornby et al., “Quorum sensing in the dimorphic fungus Candida albicans is mediated by farnesol;” Applied and Environmental Microbiology 67:2982-2992; 2001), which included 0.56 ml of 0.1 M imidazole buffer (pH 6.5), 0.15 ml of 0.1 M MgSO4, 0.13 ml of 0.1 M GlcNAc, and 4.16 ml of sterilized water. Bioassays of quorum sensing candidates were conducted by the addition of the chemical, as a solution in 100% methanol, to the bioassay media; the final concentration of methanol was no greater than 1%.

O=C(O)Cc1ccccc1O [2-hydroxy phenyl acetic acid]
GTF % (mean ± SEM, n = 2) (100 μM, * one replicate): 90.3* % | GTF % (mean ± SEM, n = 2) (200 μM): 71.3 ± 2.5%

CC(C)=CCC/C(C)=C/CC/C(C)=C/CO[C@@H]1C(O)C(O)OC(CO)C1O (some centres unmarked) [#8 synthesized analog]
GTF % (mean ± SEM, n = 2) (100 μM, * one replicate): 76.6 ± 0.3% | GTF % (mean ± SEM, n = 2) (200 μM): 66.3 ± 0.6%

O=C(O)Cc1ccc(O)cc1 [4-hydroxy phenyl acetic acid]
GTF % (mean ± SEM, n = 2) (100 μM, * one replicate): 93.1* % | GTF % (mean ± SEM, n = 2) (200 μM): 86.2 ± 1.8%

OC[C@H]1O[C@@H](OCCc2ccc(O)cc2)[C@H](O)[C@@H](O)[C@@H]1O [salidroside]
GTF % (mean ± SEM, n = 2) (100 μM, * one replicate): 93.2* % | GTF % (mean ± SEM, n = 2) (200 μM): 78.0 ± 5.9%

OCCc1ccc(O)c(O)c1 [hydroxytyrosol]
GTF % (mean ± SEM, n = 2) (100 μM, * one replicate): 78.0* % | GTF % (mean ± SEM, n = 2) (200 μM): 84.9 ± 0.1%

CC(C)=CCC/C(C)=C/CC/C(C)=C/COCCCO [#6 synthesized analog]
GTF % (mean ± SEM, n = 2) (100 μM, * one replicate): 75.1 ± 0.5% | GTF % (mean ± SEM, n = 2) (200 μM): 51.1 ± 3.2%

CC(C)=CCC/C(C)=C/CC/C(C)=C/COCCO [#7 synthesized analog]
GTF % (mean ± SEM, n = 2) (100 μM, * one replicate): 72.6 ± 1.7% | GTF % (mean ± SEM, n = 2) (200 μM): 58.8 ± 2.1%

— patent US11383003B2, “Water soluble farnesol analogs and their use” (Kimberly-Clark Worldwide, Inc., priority 2012, dated 2022)
